Numbers after ± are expanded uncertainties.
Columns and labels:
[1] = Crystal; DTA
[2] = Molar enthalpy of transition or fusion; conditions: Crystal; DSC

Normal melting temperature [1]: 59.4 ± 1.1 °C | Molar enthalpy of transition or fusion [2]: 4.54 ± 0.136 kcal/mol
SMILES: COc1cc(CNC(=O)CCCCCCC(C)C)ccc1O [N-(4-hydroxy-3-methoxybenzyl)-8-methylnonanamide]

Source: the NIST ThermoML archive (doi:10.1021/je1011136)
